US11826325B2, “Use of Belinostat or pharmaceutically acceptable salt thereof in preparation of drug for treating infection” (priority 2021, dated 2023)

How the values were obtained:
[1] = Mouse superficial skin injury infection model, wound healing; assay type: in vivo, BALB/c mice; details: mice, low-concentration group 0.1 μM vs high-concentration group 100 μM and fusidic acid group
Protocol: (§1) Medical tape; 3% chloral hydrate; normal saline; 0.1 μM Belinostat and 100 μM Belinostat (with solvents being 10% glycerin); a commercially available fusidic acid ointment (2% drug content); an LB plate; an independent air supply cage for mice; surgical scissors; tweezers; and a hair removal device.
(§2) 20 female BALB/c mice aged 6-8 weeks were kept in the independent air supply cage.
Back skin of 6-8 week-old female BALB/c mice was depilated with a depilatory paste before modeling, and an exposed skin region with a size of about 1 cm^2 was formed. On the day of modeling, the mice were anesthetized by intraperitoneal injection of 3% chloral hydrate at 10 mL/kg. A same operator pasted the medical adhesive tape to the depilated skin of the mice with basically a same strength, and then tore the medical adhesive tape off. […]
The mice were randomly divided into four groups, which were a blank control (control) group, a low-concentration X group (low-concentration group, with a specific concentration of 0.1 μM), a high-concentration X group (high-concentration group, with a specific concentration of 100 μM), and a fusidic acid group (fusidic acid group, that is, a positive control group), with five mice in each group. All the mice of the blank control group were killed the day before the start of treatment to quantify an amount of bacterial inoculation. […]

[2] = test system: Staphylococcus aureus (ATCC BAA-1761 strain); test: Mouse superficial skin injury infection model, viable bacterial count on infected wound; assay type: in vivo; details: mice; for bacterial count in skin lesion site compared with blank control group: topical twice a day for 3 days, p.value=0.0006
Protocol: as §1, §2
Preparation of a bacterial solution: Staphylococcus aureus (ATCC BAA-1761 strain), preserved by the Laboratory Department of the First Affiliated Hospital of Xi′an Jiaotong University. Before the experiment, Staphylococcus aureus was inoculated in 5 mL of LB and placed in an incubator at 37° C. for shaking culture, and when the amount of bacteria was about 10^7 CFU/mL, the bacteria were taken out for use.
Back skin of 6-8 week-old female BALB/c mice was depilated with a depilatory paste before modeling, and an exposed skin region with a size of about 1 cm^2 was formed. On the day of modeling, the mice were anesthetized by intraperitoneal injection of 3% chloral hydrate at 10 mL/kg. A same operator pasted the medical adhesive tape to the depilated skin of the mice with basically a same strength, and then tore the medical adhesive tape off. The foregoing paste-tear operation was repeated many times to remove stratum corneum, and the adhesive tape needed to be replaced during each paste-tear process. When the skin of the mice became red and shiny, but there was no regular bleeding, the paste was stopped. The foregoing 10 μL of bacterial suspension was evenly applied to the damaged skin of the mice, and the infection lasted for 24 hours to establish the model of superficial skin injury of the mice.
The mice were randomly divided into four groups, which were a blank control (control) group, a low-concentration X group (low-concentration group, with a specific concentration of 0.1 μM), a high-concentration X group (high-concentration group, with a specific concentration of 100 μM), and a fusidic acid group (fusidic acid group, that is, a positive control group), with five mice in each group. All the mice of the blank control group were killed the day before the start of treatment to quantify an amount of bacterial inoculation. The three drug groups were administered twice a day (8:00 am. and 8:00 p.m. respectively) for three consecutive days after the infection. Dosages of the low-concentration X group and the high-concentration X group were 50 μL/time for each mouse, and a dosage of the fusidic acid group was 0.1 g/time for each mouse. […] After the experiment, the mice were killed.
After the mice were killed, a wound of about 1 cm^2 was excised immediately, and put into a tissue homogenizing tube with 1 mL of normal saline and magnetic beads for tissue homogenization. 100 μL of tissue homogenate was diluted with normal saline for 10^1, 10^2, 10^3, and 10^4 times gradient, and then 100 μL of each diluted solution was evenly spread on an LB plate. After inverted overnight culture for 12-24 hours, colonies were counted and the count was converted into bacterial content (CFU/cm^2) per square centimeter of tissue.

Bacillus subtilis [3] = test: DAPI staining of Bacillus subtilis; assay type: cell-based; details: 500 μM, 4 hours
Protocol: (§3) Before the experiment, an appropriate amount of Belinostat was weighed and dissolved in DMSO to obtain a mother liquid with a concentration of 100 mM. The mother liquid was diluted with an LB medium for use. Bacillus subtilis used in this embodiment was ATCC 23857 strain, and Staphylococcus aureus was methicillin-resistant Staphylococcus aureus ATCC BAA-1761 strain.
(§4) The experiments were performed in EP tubes, and one drug treated group and one blank control group were set. A bacterial solution of Bacillus subtilis cultured in an LB medium was diluted to 5×10^5 CFU/mL with the LB medium, 100 μL of diluted bacterial solution was taken and added to a 1.5 mL EP tube, and then 100 μL of Belinostat solution diluted with the LB medium was added, so that the final drug concentration was 500 μM. DMSO and the LB medium were added to the blank control group, so that the final concentration of the DMSO was 0.5% and a volume of a reaction system was consistent with that of the drug treated group. Three replicate tube were set in each group, and shaking culture was performed at 37° C. for 4 hours. […]

HU^171A protein = HU^171A protein (Bacillus subtilis, UniProt P08821, I71A); test: waterLOGSY 1D NMR binding experiment, mutated HU protein; details: 10 μM protein, pH 6.5 buffer
Sequence of HU^171A protein (P08821 whole entry I71A): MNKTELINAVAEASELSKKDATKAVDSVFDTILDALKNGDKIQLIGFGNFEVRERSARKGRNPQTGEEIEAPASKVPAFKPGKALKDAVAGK
Excerpt: (§5) At the molecular level, a binding effect of Belinostat with the HU protein was verified by nuclear magnetism Titration and waterLOGSY experiments. The isoleucine (Ile) at the 71^St site in the HU protein was mutated into alanine (Ala) to obtain a corresponding mutant (hereinafter referred to as “HU^171A protein”), then the waterLOGSY experiment was repeated, and the binding effect of the drug and the mutated HU^171A protein disappeared, proving that a key binding site of the two was the amino acid at the 71st site in the HU protein. Specific experimental steps and experimental results are as follows:
(§6) 1 μL of the foregoing Belinostat stock solution was taken, 479 μL of buffer solution (300 mM of NaCl and 50 mM of K2HPO4, with the pH of 6.5) and 20 μL of D2O were added and mixed evenly, and then the obtained solution was transferred to the nuclear magnetic resonance tube for use. In addition, two parts of 1 μL of the foregoing Belinostat stock solution were taken, an appropriate amount of HU protein and HU^171A protein were added respectively, then an appropriate amount of buffer solution and 20 μL of D2O were added respectively, so that the total volume of the solution was 500 μL, and the final protein concentration was 10 μm. After uniform mixing, the obtained solutions were transferred to nuclear magnetic resonance tubes for use. […]

HU protein [4] = biological target: T1, HU protein (Bacillus subtilis, UniProt P08821); test: Nuclear magnetism Titration (HSQC) binding experiment; details: 10 μM HU protein, 1 μL of 100 mM Belinostat stock added
T1 sequence (P08821 whole entry): as the sequence (P08821 whole entry I71A) above, with A71I counted along it
Excerpt: as §5
An appropriate amount of Belinostat (MedChemExpress Company) was weighed and dissolved in DMSO-d6 (Solarbio Science & Technology Co., Ltd.) to obtain a stock solution of Belinostat with a concentration of 100 mM for use. 480 μl of solution containing 10 μM of HU protein was taken, 20 μL of D2O was added and mixed evenly, the obtained solution was transferred into a nuclear magnetic resonance tube, and an HSQC spectrogram of the HU protein was recorded on a Brooke 600 MHz nuclear magnetic resonance spectrometer (Avance III). 1 μL of Belinostat stock solution was taken, added into the foregoing nuclear magnetic resonance tube and mixed evenly, and then an HSQC spectrogram was recorded again.

Bacillus subtilis [5] = test: Transmission electron microscope observation of Bacillus subtilis; assay type: cell-based; details: 500 μM, 4 hours
Protocol: as §3
(§7) A bacterial solution of Bacillus subtilis cultured in an LB medium was diluted to 5×10^5 CFU/mL with the LB medium, 2.5 mL of diluted bacterial solution was taken and added to a 15 mL centrifuge tube, and then 2.5 mL of Belinostat solution diluted with the LB medium was added, so that the final drug concentration was 500 μM. 25 μL of DMSO and an appropriate amount of LB medium were added to the blank control group (the Control group) to ensure that a volume of a reaction system was consistent with that of the drug treated group (the Treated group). Three replicate tubes were set in each group. Shaking culture was performed at 37° C. for 4 hours, and bacteria were collected by centrifugation. […]

[6] = test system: Bacillus subtilis (ATCC 23857 strain); test: Growth curve of Bacillus subtilis (OD600); assay type: cell-based; details: 24 hours
Protocol: as §3
The experiment was performed on a 96-well plate, four groups of drug treated groups and one blank control group (that is, the Control group) were set, and each group had three repeat wells. A bacterial solution of Bacillus subtilis (ATCC 23857 strain) cultured in an LB medium was diluted to 5×10^5 CFU/mL with an LB medium, 15 wells were selected in the middle of the 96-well plate, 100 μL of diluted bacterial solution was added to each well, and then 100 μL of Belinostat solution diluted with the LB medium was added, so that the final drug concentrations in the four drug treated groups were 100 μM, 200 μM, 400 μM, and 500 μM, respectively. DMSO and the LB medium were added to the blank control group, so that the final concentration of the DMSO was 0.5% and a volume of a reaction system was consistent with that of each drug treated group. Shaking culture was performed at 37° C. for 24 hours.
Absorbance at 600 nm was used as an index of a bacterial concentration in the culture solution for determining once every 3 hours. Finally, with OD600 as a vertical coordinate and time as a horizontal coordinate, a bacterial growth curve was drawn.

HU protein [7] = biological target: T1, HU protein; test: waterLOGSY 1D NMR binding experiment, HU protein; details: 10 μM protein, pH 6.5 buffer
Excerpt: as §5, §6

[8] = test system: Staphylococcus aureus (ATCC BAA-1761 strain); test: DAPI staining of Staphylococcus aureus; assay type: cell-based; details: 500 μM, 4 hours, methicillin-resistant strain
Protocol: as §3, §4

Staphylococcus aureus = test: Transmission electron microscope observation of Staphylococcus aureus; assay type: cell-based; details: 500 μM, 4 hours
Protocol: as §3, §7

O=C(/C=C/c1cccc(S(=O)(=O)Nc2ccccc2)c1)NO [Belinostat, N-hydroxy-3-(3-[(phenylamino)sulfonyl]phenyl)acrylamide]
wound healing speed [1]: significantly faster | bacterial load at the skin lesion site, two concentrations ([2]; 0.1 μM and 100 μM, 50 μL/time, twice a day, 3 days): same bactericidal effect | antibacterial ability compared with commercial fusidic acid ([2]; dosage of Belinostat lower than that of fusidic acid): equivalent antibacterial ability | curative effect compared with fusidic acid ([2]; molar dosages much lower than fusidic acid): better than that of the fusidic acid | bacterial count in skin lesion site compared with blank control group [2]: significantly reduced | DAPI staining, nucleus region morphology (Bacillus subtilis [3]): bacterial nucleus region became longer | binding to mutated HU^171A protein (waterLOGSY) (HU^171A protein): could not react with the mutated HU protein | binding to HU protein (peak migration and peak intensity change in HSQC spectrum) (HU protein [4]): can bind to the HU protein | transmission electron microscope, cell length and nucleoid regions (Bacillus subtilis [5]): increased to different degrees, and nucleoid regions were scattered in many places in cytoplasm | effect on growth of Bacillus subtilis (absorbance at 600 nm vs blank control) ([6]; 200 μM): relatively strong inhibitory effect on bacterial growth | effect on growth of Bacillus subtilis ([6]; 400 μM): almost completely inhibited | effect on growth of Bacillus subtilis ([6]; 500 μM): almost completely inhibited | effect on growth of Bacillus subtilis ([6]; different concentrations (100, 200, 400, 500 μM), 37° C.): inhibitory effect on growth of Bacillus subtilis | binding to HU protein (waterLOGSY peaks reversed into negative peaks) (HU protein [7]): bound to the HU protein | DAPI staining, nucleus region morphology [8]: bacterial nucleus region was dispersed | transmission electron microscope, nucleoid regions (Staphylococcus aureus): became inconspicuous and showed a loose state

CC(=O)O[C@H]1C[C@@]2(C)[C@@H](C[C@@H](O)[C@H]3[C@@]4(C)CC[C@@H](O)[C@@H](C)[C@@H]4CC[C@@]32C)/C1=C(\CCC=C(C)C)C(=O)O [fusidic acid]
bacterial count in skin lesion site compared with blank control group [2]: significantly reduced
